Experimental data from ChEMBL document CHEMBL1201862, “PubChem BioAssay data set” (2004).
Activity calls are given as the source filed them. Rule as the data show it: actives have a measured IC50 and inactives only a lower limit.

These molecules were tested against Envelope glycoprotein gp160 (Human immunodeficiency virus 1, UniProt Q6QLK5) (assay: inhibitors of HIV fusion peptide binding, primary screen, biochemical, uHTS, fluorescence dequenching (AID 1986)).
Sequence of Envelope glycoprotein gp160 (Q6QLK5 whole entry, the tested form may be a part): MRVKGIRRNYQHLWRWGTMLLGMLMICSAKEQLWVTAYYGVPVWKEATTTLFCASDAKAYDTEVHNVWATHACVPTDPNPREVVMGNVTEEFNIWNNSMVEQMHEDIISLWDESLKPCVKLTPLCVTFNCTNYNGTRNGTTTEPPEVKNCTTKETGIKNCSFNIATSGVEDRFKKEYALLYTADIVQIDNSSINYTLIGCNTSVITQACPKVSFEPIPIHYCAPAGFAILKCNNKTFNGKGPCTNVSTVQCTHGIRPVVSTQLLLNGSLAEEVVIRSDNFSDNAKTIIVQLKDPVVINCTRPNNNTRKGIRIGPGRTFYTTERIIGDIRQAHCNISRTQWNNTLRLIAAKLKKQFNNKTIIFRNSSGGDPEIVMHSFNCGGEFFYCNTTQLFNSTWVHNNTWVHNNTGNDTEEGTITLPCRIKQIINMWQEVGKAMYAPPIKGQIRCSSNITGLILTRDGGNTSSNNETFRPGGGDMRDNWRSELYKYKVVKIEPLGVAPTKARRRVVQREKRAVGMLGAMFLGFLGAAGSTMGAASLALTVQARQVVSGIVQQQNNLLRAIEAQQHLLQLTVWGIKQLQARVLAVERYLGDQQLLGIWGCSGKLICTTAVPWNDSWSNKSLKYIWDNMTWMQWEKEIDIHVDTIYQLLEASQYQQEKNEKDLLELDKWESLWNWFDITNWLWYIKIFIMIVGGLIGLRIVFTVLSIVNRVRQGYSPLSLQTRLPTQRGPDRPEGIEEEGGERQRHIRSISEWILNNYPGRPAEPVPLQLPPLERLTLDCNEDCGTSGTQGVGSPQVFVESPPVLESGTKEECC
In the case of `Cc1ccc(S(=O)(=O)NC2=NC(=O)/C(=C/c3cc([N+](=O)[O-])ccc3O)S2)cc1`, the IC50 is reported as 13.5 µM (active). In the case of `Cc1cc(/C=c2\sc3nc4ccccc4n3c2=O)c(C)n1-c1ccc(C(=O)O)cc1`, the IC50 is reported as 25.8 µM (active). For `O=C(Nc1ccc(Br)cc1C(=O)O)c1ccc2c(c1)C(=O)N(Cc1ccccc1)C2=O`, the IC50 was 13.5 µM (active). With `CCc1nnc(NS(=O)(=O)c2ccc(N/C=C(\C=O)c3nc4cc(Cl)ccc4o3)cc2)s1` the IC50 was 19.7 µM (active).
